Data published in patent US5948786A, “Piperidinylpyrimidine derivatives” (Sumitomo Pharmaceuticals Company, Limited, priority 1996, dated 1999).

Tested on: TNF α production from mouse macrophages
Assay: Inhibitory activity of compound on TNF α Production from mouse macrophages (LPS-induced PEC's)
Format: cell-based
Settings: Macrophage, LPS 10 μg/ml, 18 hours
Protocol: BALB/c mice (female, 5-7 weeks old, Charles River Japan, Tokyo, Japan) were injected i.p. with 1 ml of 2.4% thioglycollate broth. After 4 days, the mice were sacrificed. Peritoneal exudated cells (PEC's) were collected from the peritoneal cavity by washing with minimum essential medium (MEM, Handai biseibutubyou kenkyukai, Osaka, Japan) containing 5 U/ml heparin, 1% fetal bovine serum (FBS, Filtron, Victoria, Australia) and antibiotics. The cells were washed two times with MEM, suspended with MEM containing 10% FBS (complete MEM, cMEM) and seeded into 96-well culture plates (Costar, Cambridge, Mass., USA) at 2×10^5 cells/well. The cells were incubated for 1 hour at 37° C. in a humidified 5% CO2 incubator and washed two times to remove non-adherent cells.
TNF α was induced by 10 μg/ml of LPS (E. coli O111B4, DIFCO, Detroit, Mich., USA) the cells were cultured for 18 hours at 37° C. A compound of the present invention was dissolved in DMSO and added to the culture simultaneously with LPS. The final DMSO concentration was below 0.1%. The TNF α concentration in supernatant and recombinant mouse TNF α standard (rm-TNF α, Genzyme, Mass., USA) were incubated overnight at 4° C. in a 96-well plate coated with anti-mouse TNF α monoclonal antibody (PharMingen, San Diego, Calif., USA) that previously had been blocked with 10% FBS. Each well of the plate first was incubated at room temperature with biotinylated anti-mouse TNF α polyclonal antibodies (PharMingen) for 45 minutes, then with peroxidase-conjugated streptavidin (Kirkegaard & Perry Laboratories Inc., Gaitherburg, Md., USA) for 30 minutes. After each incubation, the plate was washed 4 to 8 times with PBS containing 0.2% Tween 20. TMB (Kirkegaard & Perry Laboratories Inc.) was the peroxidase substrate used and, the absorbance of each well was quantified at 450 nm by a microplatereader (Molecular Devices Corp., CA, USA). TNF α levels in the supernatant were quantified with rm-TNF α as the standard.

Structure (SMILES)	inhibition at 30 µM [%]
Nc1nc(C2CCN(C(=O)c3ccc(Cl)cc3Cl)CC2)c2ccccc2n1 [Example 59]	56
Nc1nc(C2CCN(C(=O)c3cc(Cl)ccc3Cl)CC2)c2ccccc2n1 [Example 60]	73
Nc1nc(C2CCN(C(=O)c3ccc(Cl)c(Cl)c3)CC2)c2ccccc2n1 [Example 62]	55
Nc1nc(C2CCN(C(=O)c3cccc4ccccc34)CC2)c2ccccc2n1 [Example 66]	32
COc1ccc(C(=O)N2CCC(c3nc(N)nc4ccccc34)CC2)c(OC)c1OC [Example 68]	8
COc1ccc(OC)c(C(=O)N2CCC(c3nc(N)nc4ccccc34)CC2)c1OC [Example 69]	-95
COc1cc(C(=O)N2CCC(c3nc(N)nc4ccccc34)CC2)cc(OC)c1OC [Example 72]	32
Nc1nc(C2CCN(C(=O)c3cc(Cl)cc(Cl)c3Cl)CC2)c2ccccc2n1 [Example 73]	23
Nc1nc(C2CCN(C(=O)c3c(Cl)ccc(Cl)c3Cl)CC2)c2ccccc2n1 [Example 74]	88
Nc1nc(C2CCN(C(=O)c3c(Cl)cc(Cl)cc3Cl)CC2)c2ccccc2n1 [Example 75]	92
COc1ccccc1CC(=O)N1CCC(c2nc(N)nc3ccccc23)CC1 [Example 77]	27
COc1cccc(CC(=O)N2CCC(c3nc(N)nc4ccccc34)CC2)c1 [Example 78]	10
COc1ccc(CC(=O)N2CCC(c3nc(N)nc4ccccc34)CC2)cc1 [Example 79]	-3
Nc1nc(C2CCN(C(=O)Cc3ccccc3Cl)CC2)c2ccccc2n1 [Example 80]	28
Nc1nc(C2CCN(C(=O)Cc3cccc(Cl)c3)CC2)c2ccccc2n1 [Example 81]	56
Nc1nc(C2CCN(C(=O)Cc3ccc(Cl)cc3)CC2)c2ccccc2n1 [Example 82]	59
Nc1nc(C2CCN(C(=O)Cc3ccc([N+](=O)[O-])cc3)CC2)c2ccccc2n1 [Example 88]	26
COc1ccc(CC(=O)N2CCC(c3nc(N)nc4ccccc34)CC2)cc1OC [Example 92]	68
COc1cc(CC(=O)N2CCC(c3nc(N)nc4ccccc34)CC2)cc(OC)c1 [Example 93]	60
Nc1nc(C2CCN(C(=O)Cc3ccc(Cl)cc3Cl)CC2)c2ccccc2n1 [Example 94]	78
Nc1nc(C2CCN(C(=O)Cc3ccc(Cl)c(Cl)c3)CC2)c2ccccc2n1 [Example 96]	100
Nc1nc(C2CCN(C(=O)Cc3ccc([N+](=O)[O-])cc3[N+](=O)[O-])CC2)c2ccccc2n1 [Example 97]	45
Nc1nc(C2CCN(C(=O)Cc3c(Cl)ccc(Cl)c3Cl)CC2)c2ccccc2n1 [Example 98]	43
CCCCCCC(=O)N1CCC(c2nc(N)nc3ccc(OC)cc23)CC1 [Example 103]	44

Structure (SMILES)	inhibition at 30 µM [%]
CCCCCCCC(=O)N1CCC(c2nc(N)nc3ccc(OC)cc23)CC1 [Example 104]	50
CCCCCCCCC(=O)N1CCC(c2nc(N)nc3ccc(OC)cc23)CC1 [Example 105]	54
CCCCCCCCCC(=O)N1CCC(c2nc(N)nc3ccc(OC)cc23)CC1 [Example 106]	54
COc1ccc(C(=O)N2CCC(c3nc(N)nc4ccc(OC)cc34)CC2)cc1 [Example 110]	21
COc1ccc2nc(N)nc(C3CCN(C(=O)c4ccc(Cl)cc4)CC3)c2c1 [Example 113]	-1
COc1ccc2nc(N)nc(C3CCN(C(=O)c4ccc([N+](=O)[O-])cc4)CC3)c2c1 [Example 116]	23
COc1ccc(CC(=O)N2CCC(c3nc(N)nc4ccc(OC)cc34)CC2)cc1 [Example 120]	31
COc1ccc2nc(N)nc(C3CCN(C(=O)Cc4ccc(Cl)cc4)CC3)c2c1 [Example 123]	28
COc1ccc2nc(N)nc(C3CCN(C(=O)Cc4ccc([N+](=O)[O-])cc4)CC3)c2c1 [Example 126]	43
CCCCCCCC(=O)N1CCC(c2nc(N)nc3ccc(Cl)cc23)CC1 [Example 127]	48
CCCCCCCCC(=O)N1CCC(c2nc(N)nc3ccc(Cl)cc23)CC1 [Example 128]	79
CCCCCCCCCC(=O)N1CCC(c2nc(N)nc3ccc(Cl)cc23)CC1 [Example 129]	48
COc1ccc(CC(=O)N2CCC(c3nc(N)nc4ccc(Cl)cc34)CC2)cc1 [Example 131]	23
Nc1nc(C2CCN(C(=O)Cc3ccc(Cl)cc3)CC2)c2cc(Cl)ccc2n1 [Example 132]	55
Nc1nc(C2CCN(C(=O)Cc3ccc([N+](=O)[O-])cc3)CC2)c2cc(Cl)ccc2n1 [Example 133]	35
CCCCCCCC(=O)N1CCC(c2cc(-c3ccccc3)nc(N)n2)CC1 [Example 136]	48
CCCCCCCCC(=O)N1CCC(c2cc(-c3ccccc3)nc(N)n2)CC1 [Example 137]	67
CCCCCCCCCC(=O)N1CCC(c2cc(-c3ccccc3)nc(N)n2)CC1 [Example 138]	70
COc1ccc(CC(=O)N2CCC(c3cc(-c4ccccc4)nc(N)n3)CC2)cc1 [Example 142]	55
Nc1nc(-c2ccccc2)cc(C2CCN(C(=O)Cc3ccc(Cl)cc3)CC2)n1 [Example 143]	55
Nc1nc(-c2ccccc2)cc(C2CCN(C(=O)Cc3ccc([N+](=O)[O-])cc3)CC2)n1 [Example 144]	6
CCCCCCCC(=O)N1CCC(c2cc(-c3ccc(Cl)cc3)nc(N)n2)CC1 [Example 147]	55
CCCCCCCCC(=O)N1CCC(c2cc(-c3ccc(Cl)cc3)nc(N)n2)CC1 [Example 148]	68
CCCCCCCCCC(=O)N1CCC(c2cc(-c3ccc(Cl)cc3)nc(N)n2)CC1 [Example 149]	57

Structure (SMILES)	inhibition at 30 µM [%]
COc1ccc(CC(=O)N2CCC(c3cc(-c4ccc(Cl)cc4)nc(N)n3)CC2)cc1 [Example 151]	70
Nc1nc(-c2ccc(Cl)cc2)cc(C2CCN(C(=O)Cc3ccc(Cl)cc3)CC2)n1 [Example 152]	90
Nc1nc(-c2ccc(Cl)cc2)cc(C2CCN(C(=O)Cc3ccc([N+](=O)[O-])cc3)CC2)n1 [Example 153]	92
CCCCCCCC(=O)N1CCC(c2cc(-c3ccc(OC)cc3)nc(N)n2)CC1 [Example 154]	86
CCCCCCCCC(=O)N1CCC(c2cc(-c3ccc(OC)cc3)nc(N)n2)CC1 [Example 155]	76
CCCCCCCCCC(=O)N1CCC(c2cc(-c3ccc(OC)cc3)nc(N)n2)CC1 [Example 156]	74
COc1ccc(CC(=O)N2CCC(c3cc(-c4ccc(OC)cc4)nc(N)n3)CC2)cc1 [Example 158]	61
COc1ccc(-c2cc(C3CCN(C(=O)Cc4ccc(Cl)cc4)CC3)nc(N)n2)cc1 [Example 159]	75
COc1ccc(-c2cc(C3CCN(C(=O)Cc4ccc([N+](=O)[O-])cc4)CC3)nc(N)n2)cc1 [Example 160]	57
COc1ccc(Cc2cc(C3CCN(C(C)=O)CC3)nc(N)n2)cc1 [Example 162]	61
CCC(=O)N1CCC(c2cc(Cc3ccc(OC)cc3)nc(N)n2)CC1 [Example 163]	79
CCCC(=O)N1CCC(c2cc(Cc3ccc(OC)cc3)nc(N)n2)CC1 [Example 164]	43
CCCCC(=O)N1CCC(c2cc(Cc3ccc(OC)cc3)nc(N)n2)CC1 [Example 165]	41
CCCCCC(=O)N1CCC(c2cc(Cc3ccc(OC)cc3)nc(N)n2)CC1 [Example 166]	48
CCCCCCC(=O)N1CCC(c2cc(Cc3ccc(OC)cc3)nc(N)n2)CC1 [Example 167]	52
CCCCCCCC(=O)N1CCC(c2cc(Cc3ccc(OC)cc3)nc(N)n2)CC1 [Example 168]	49
CCCCCCCCC(=O)N1CCC(c2cc(Cc3ccc(OC)cc3)nc(N)n2)CC1 [Example 169]	12
CCCCCCCCCC(=O)N1CCC(c2cc(Cc3ccc(OC)cc3)nc(N)n2)CC1 [Example 170]	11
CCCCCCCCCCC(=O)N1CCC(c2cc(Cc3ccc(OC)cc3)nc(N)n2)CC1 [Example 171]	13
COc1ccc(Cc2cc(C3CCN(C(=O)C(C)(C)C)CC3)nc(N)n2)cc1 [Example 173]	31
COc1ccc(Cc2cc(C3CCN(C(=O)CCCl)CC3)nc(N)n2)cc1 [Example 174]	54
COc1ccc(Cc2cc(C3CCN(C(=O)CCBr)CC3)nc(N)n2)cc1 [Example 175]	48
